In PubChem BioAssay (NCI):
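Following 48 hours of exposure in 96-well plates, responses at five concentrations were used to interpolate endpoints linearly. TGI: total growth inhibition.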

How the values were obtained:
Assay in all cases: NCI tumour cell line growth inhibition, 48 h
P388 leukemia = tested on: P388 leukemia
P388/ADR leukemia = tested on: P388/ADR leukemia
SN12K1 renal = tested on: SN12K1 renal
SNB-78 CNS = tested on: SNB-78 CNS
LXFL 529 NSCLC = tested on: LXFL 529 NSCLC
RXF-631 renal = tested on: RXF-631 renal

Measured: TGI

CO/C=C1\OC(=O)C=C1OC
> 100 µM: P388 leukemia | P388/ADR leukemia | SN12K1 renal | SNB-78 CNS

O=S(O)CCCSSSCCCS(=O)O
> 100 µM: LXFL 529 NSCLC | RXF-631 renal | SNB-78 CNS

c1ccc2c(c1)SCCc1cn[nH]c1-2
> 100 µM: P388 leukemia | P388/ADR leukemia | SN12K1 renal | SNB-78 CNS

CN(c1ccccc1)c1nc(=[N+]2CCCC2)ss1
> 100 µM: LXFL 529 NSCLC | RXF-631 renal | SNB-78 CNS
